According to patent US6447818B1, “Compositions containing compounds with adrenergic activity and vegetable extracts of Crataegus and gingko biloba for the treatment of overweight and obesity” (Ambros Pharma S.R.L., priority 1999, dated 2002):

Test system: systemic arterial pressure and cardiac frequency in the rat
Assay: Hypertensive and tachycardic effects of adrenergic substances and extracts in the anesthetized rat
Assay type: in vivo
Details: i.v., anesthetized male Wistar rats, dose-dependent
Excerpt: 1. Effects of Crataegus Extract and Oterin® on Hypertension Induced with Ephedrine or with Extract of Ephedra Sinica Standardized in Ephedrine or Induced with Synephrine, or with Extract of Citrus Aurantium Standardized in Synephrine in the Rat
Male Wistar rats (Charles River, Calco-CO) weighing 180-200 grams were used. The animals were anesthetized with ethylurethane (1.2-1.5 g/kg i.p.) and prepared for the recording of systemic arterial pressure (via the carotid artery) and cardiac frequency. Individual examples of the registration (copies of the original tracings) and the summary of the mean data (±SEM) are given in FIGS. 1-4.
The dosages of synephrine leading to hypertensive activity were slightly higher (0.5-2 mg/kg i.v.) (FIGS. 2A, 3C). […] Tachycardia was induced in the same dose-dependent manner (FIGS. 3A, 3B).

## CNCC(O)c1ccc(O)cc1 (stereo not shown) [synephrine]
  dosages inducing hypertensive effects on the arterial pressure: 0.5 to 2 mg/kg
